In patent US20140228293A1, “PARATHYROID HORMONE ANALOGS, COMPOSITIONS AND USES THEREOF” (THE GENERAL HOSPITAL CORPORATION, priority 2011, published 2014):
Where two headings read alike, the source gives them in different places.

Experiment: Stability study by HPLC-MS under ambient conditions
Assay type: physicochemical
Excerpt: High performance liquid chromatography-mass spectroscopy (HPLC-MS) was used to monitor the degradation of four synthetic compounds over a period of time.

[1] = room temperature, air, water solution, neutral pH, HPLC-MS

[Nle^8,18]hPTH(1-37) [[Nle^8,11]hPTH(1-37)]
degradation after 7 days (estimated based on UV signal) [1]: about 70%

hPTH(1-37) (SVSEIQLMHNLGKHLNSMERVEWLRKKLQDVHNFVAL)
degradation after 7 days (estimated based on UV signal) [1]: about 70%

[Nle^8,18]hPTH(1-84) [[Nle^8,11]hPTH(1-84)]
degradation after 7 days (estimated based on UV signal): less than 10%
